Reference: the NIST ThermoML archive (doi:10.1021/je700260f)

Details: 293.15 K, Liquid, Vibrating tube method

FC(C(F)(F)F)C(F)(F)F [1,1,1,2,3,3,3-heptafluoropropane]
Details | mass density [kg/m3]
19492 kPa | 1505.8
19631 kPa | 1506.6
19665 kPa | 1506.5
19699 kPa | 1506.6
19732 kPa | 1506.9
19762 kPa | 1506.9
19806 kPa | 1507.1
19844 kPa | 1507.3
19868 kPa | 1507.3
19906 kPa | 1507.5
19940 kPa | 1507.7
19974 kPa | 1507.8
20007 kPa | 1507.9
20047 kPa | 1508
20080 kPa | 1508.1
20109 kPa | 1508.3
20152 kPa | 1508.4
20190 kPa | 1508.6
20215 kPa | 1508.7
20258 kPa | 1508.8
20302 kPa | 1508.9
20335 kPa | 1509.2
20375 kPa | 1509.2
20404 kPa | 1509.3
20434 kPa | 1509.5
20478 kPa | 1509.6
20517 kPa | 1509.9
20546 kPa | 1510
20591 kPa | 1510.1
20630 kPa | 1510.1
20659 kPa | 1510.3
20702 kPa | 1510.5
20732 kPa | 1510.6
20761 kPa | 1510.6
20802 kPa | 1510.8
20843 kPa | 1511
20873 kPa | 1511
20907 kPa | 1511.2
20982 kPa | 1511.5
21017 kPa | 1511.6
21048 kPa | 1511.8
21094 kPa | 1511.9
21134 kPa | 1512
21164 kPa | 1512.1
21209 kPa | 1512.3
21245 kPa | 1512.4
21279 kPa | 1512.5
21314 kPa | 1512.7
21359 kPa | 1512.8
21389 kPa | 1513
21458 kPa | 1513.1
21488 kPa | 1513.2
21669 kPa | 1513.9
21699 kPa | 1513.9
21739 kPa | 1514.2
21927 kPa | 1514.8
21967 kPa | 1515
22009 kPa | 1515.2
22034 kPa | 1515.3
22076 kPa | 1515.4
22122 kPa | 1515.5
22152 kPa | 1515.7
22194 kPa | 1515.8
22230 kPa | 1515.9
22261 kPa | 1516.2
22291 kPa | 1516.2
22322 kPa | 1516.3
22358 kPa | 1516.3
22404 kPa | 1516.5
22440 kPa | 1516.7
22476 kPa | 1516.8
22522 kPa | 1516.9
22548 kPa | 1517.1
22584 kPa | 1517.1
22625 kPa | 1517.4
22661 kPa | 1517.5
22702 kPa | 1517.6
22744 kPa | 1517.7
22781 kPa | 1517.9
22813 kPa | 1518
22849 kPa | 1518.2
22886 kPa | 1518.3
22923 kPa | 1518.4
22959 kPa | 1518.6
23001 kPa | 1518.7
23042 kPa | 1518.8
23072 kPa | 1518.8
23118 kPa | 1519
23154 kPa | 1519.1
23191 kPa | 1519.3
23228 kPa | 1519.5
23271 kPa | 1519.7
23308 kPa | 1519.7
23350 kPa | 1519.8
23392 kPa | 1520
23424 kPa | 1520.1
23466 kPa | 1520.2
23513 kPa | 1520.5
23540 kPa | 1520.6
23577 kPa | 1520.5
23615 kPa | 1520.7
23648 kPa | 1520.9
23692 kPa | 1521
23735 kPa | 1521.1
23815 kPa | 1521.5
23852 kPa | 1521.6
23883 kPa | 1521.6
23925 kPa | 1521.8
23962 kPa | 1521.9
23986 kPa | 1522.1
24019 kPa | 1522.1
24048 kPa | 1522.3
24087 kPa | 1522.4
24120 kPa | 1522.5
24149 kPa | 1522.6
24187 kPa | 1522.7
24229 kPa | 1522.8
24263 kPa | 1523
24297 kPa | 1523
24326 kPa | 1523.2
24354 kPa | 1523.2
24393 kPa | 1523.3
24422 kPa | 1523.3
24451 kPa | 1523.5
24485 kPa | 1523.6
24524 kPa | 1523.8
24553 kPa | 1523.9
24587 kPa | 1524.1
24630 kPa | 1524.2
24659 kPa | 1524.3
24698 kPa | 1524.5
24728 kPa | 1524.6
24757 kPa | 1524.6
24786 kPa | 1524.7
24816 kPa | 1524.7
24851 kPa | 1524.9
24886 kPa | 1525
24920 kPa | 1525.2
24949 kPa | 1525.2
24991 kPa | 1525.5
25030 kPa | 1525.6
25059 kPa | 1525.6
25097 kPa | 1525.8
25136 kPa | 1525.9
25165 kPa | 1526.1
25199 kPa | 1526.1
25229 kPa | 1526.1
25268 kPa | 1526.4
25297 kPa | 1526.4
25326 kPa | 1526.6
25360 kPa | 1526.8
25393 kPa | 1526.6
25438 kPa | 1526.9
25466 kPa | 1527
25496 kPa | 1527.2
25530 kPa | 1527.2
25569 kPa | 1527.4
25594 kPa | 1527.4
25639 kPa | 1527.4
25678 kPa | 1527.7
25708 kPa | 1527.9
25747 kPa | 1527.9
25791 kPa | 1528.1
25816 kPa | 1528.2
25845 kPa | 1528.1
25889 kPa | 1528.4
25923 kPa | 1528.5
25958 kPa | 1528.6
25994 kPa | 1528.8
26024 kPa | 1528.9
26068 kPa | 1529
26112 kPa | 1529.1
26141 kPa | 1529.3
26181 kPa | 1529.4
26220 kPa | 1529.5
26250 kPa | 1529.5
26284 kPa | 1529.7
26319 kPa | 1529.8
26349 kPa | 1529.9
26391 kPa | 1530.1
26430 kPa | 1530.1
26455 kPa | 1530.3
26504 kPa | 1530.5
26534 kPa | 1530.6
26570 kPa | 1530.6
26610 kPa | 1530.7
26646 kPa | 1530.8
26682 kPa | 1530.9
26717 kPa | 1531.1
26753 kPa | 1531.3
26784 kPa | 1531.3
26824 kPa | 1531.4
26864 kPa | 1531.6
26899 kPa | 1531.6
26939 kPa | 1531.8
26979 kPa | 1532
27009 kPa | 1532.1
27045 kPa | 1532.2
27080 kPa | 1532.3
27115 kPa | 1532.4
27151 kPa | 1532.6
27188 kPa | 1532.6
27224 kPa | 1532.8
27265 kPa | 1532.9
27302 kPa | 1533.1
